Data reported in PubChem BioAssay AID2060506 (Molecular Pharmacology Branch, DTP, NCI, 2025).

System: 598228-144-R-J1-PDC complex spheroid viability
Assay: Anticancer human tumor 598228-144-R-J1-PDC patient-derived serous endometrial adenocarcinoma cell line growth inhibition [GQUAD]
Conditions: for IC50: curve of first compound; for viability, T/C: stronger effect = lower value; active means viability on the fitted dose curve at most 10% of control; inactive means the rest
In short: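 Tumor cells were grown as complex spheroids with HUVEC endothelial cells and mesenchymal stem cells as stroma. G-quadruplex stabilizers were combined with targeted agents over half-log dilutions from near the clinical Cmax, or from 10 microM.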

[1] = second compound 0.0316 µM, first compound 0.0316 µM
[2] = second compound 0.0316 µM, first compound 0.316 µM
[3] = second compound 0.1 µM, first compound 0.0316 µM
[4] = second compound 0.1 µM, first compound 0.316 µM
[5] = second compound 0.316 µM, first compound 0.0316 µM
[6] = second compound 0.316 µM, first compound 0.316 µM
[7] = second compound 1 µM, first compound 0.0316 µM
[8] = second compound 1 µM, first compound 0.316 µM
[9] = second compound 3.16 µM, first compound 0.0316 µM
[10] = second compound 3.16 µM, first compound 0.316 µM
[11] = second compound 10 µM, first compound 0.0316 µM
[12] = second compound 10 µM, first compound 0.316 µM
[13] = second compound 0.0316 µM, first compound 0.1 µM
[14] = second compound 0.0316 µM, first compound 1 µM
[15] = second compound 0.0316 µM, first compound 3.16 µM
[16] = second compound 0.0316 µM, first compound 10 µM
[17] = second compound 0.1 µM, first compound 0.1 µM
[18] = second compound 0.1 µM, first compound 1 µM
[19] = second compound 0.1 µM, first compound 3.16 µM
[20] = second compound 0.1 µM, first compound 10 µM
[21] = second compound 0.316 µM, first compound 0.1 µM
[22] = second compound 0.316 µM, first compound 1 µM
[23] = second compound 0.316 µM, first compound 3.16 µM
[24] = second compound 0.316 µM, first compound 10 µM
[25] = second compound 1 µM, first compound 0.1 µM
[26] = second compound 1 µM, first compound 1 µM
[27] = second compound 1 µM, first compound 3.16 µM
[28] = second compound 1 µM, first compound 10 µM
[29] = second compound 3.16 µM, first compound 0.1 µM
[30] = second compound 3.16 µM, first compound 1 µM
[31] = second compound 3.16 µM, first compound 3.16 µM
[32] = second compound 3.16 µM, first compound 10 µM
[33] = second compound 10 µM, first compound 0.1 µM
[34] = second compound 10 µM, first compound 1 µM
[35] = second compound 10 µM, first compound 3.16 µM
[36] = second compound 10 µM, first compound 10 µM
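Further: spheroids exposed to the agents for one week before reading.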
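Wherever viability, T/C is given: percent of vehicle DMSO control viability so 100% = untreated growth.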

CC[C@@]1(O)C(=O)OCc2c1cc1n(c2=O)Cc2cc3c(CN(C)C)c(O)ccc3nc2-1 + Cc1[nH]c2ccc(F)cc2c1-c1nc2c3cccnc3c3ncccc3c2[nH]1
< 0.999 nM: IC50 (second compound 3.16 µM)
> 316 nM: IC50 (second compound 0.0316 µM) | IC50 (second compound 0.1 µM) | IC50 (second compound 0.316 µM)
inactive: viability, T/C (second compound 0.0316 µM, first compound 0.000999 µM) 106% | viability, T/C (second compound 0.0316 µM, first compound 0.00316 µM) 105% | viability, T/C (second compound 0.0316 µM, first compound 0.00999 µM) 93.5% | viability, T/C [1] 90.7% | viability, T/C (second compound 0.0316 µM, first compound 0.0999 µM) 63.1% | viability, T/C [2] 71.5% | viability, T/C (second compound 0.1 µM, first compound 0.000999 µM) 104% | viability, T/C (second compound 0.1 µM, first compound 0.00316 µM) 95.4% | viability, T/C (second compound 0.1 µM, first compound 0.00999 µM) 84.4% | viability, T/C [3] 88.7% | viability, T/C (second compound 0.1 µM, first compound 0.0999 µM) 58% | viability, T/C [4] 62.3% | viability, T/C (second compound 0.316 µM, first compound 0.000999 µM) 86.8% | viability, T/C (second compound 0.316 µM, first compound 0.00316 µM) 83.7% | viability, T/C (second compound 0.316 µM, first compound 0.00999 µM) 61.9% | viability, T/C [5] 64.6% | viability, T/C (second compound 0.316 µM, first compound 0.0999 µM) 75% | viability, T/C [6] 52.3% | viability, T/C (second compound 1 µM, first compound 0.000999 µM) 64.6% | viability, T/C (second compound 1 µM, first compound 0.00316 µM) 76.8% | viability, T/C (second compound 1 µM, first compound 0.00999 µM) 59.3% | viability, T/C [7] 44.7% | viability, T/C (second compound 1 µM, first compound 0.0999 µM) 53.4% | viability, T/C [8] 41.2% | viability, T/C (second compound 3.16 µM, first compound 0.000999 µM) 39.1% | viability, T/C (second compound 3.16 µM, first compound 0.00316 µM) 57.1% | viability, T/C (second compound 3.16 µM, first compound 0.00999 µM) 39.9% | viability, T/C [9] 35.7% | viability, T/C (second compound 3.16 µM, first compound 0.0999 µM) 33.6% | viability, T/C [10] 31.4% | viability, T/C (second compound 10 µM, first compound 0.000999 µM) 71.6% | viability, T/C (second compound 10 µM, first compound 0.00316 µM) 58.9% | viability, T/C (second compound 10 µM, first compound 0.00999 µM) 63.3% | viability, T/C [11] 41.5% | viability, T/C (second compound 10 µM, first compound 0.0999 µM) 50.1% | viability, T/C [12] 34.7%
31 nM: IC50 (second compound 10 µM)
22.9 nM: IC50 (second compound 1 µM)

O=C(c1cc(Cc2n[nH]c(=O)c3ccccc23)ccc1F)N1CCN(C(=O)C2CC2)CC1 + Cc1[nH]c2ccc(F)cc2c1-c1nc2c3cccnc3c3ncccc3c2[nH]1
> 10000 nM: IC50 (second compound 0.0316 µM) | IC50 (second compound 0.1 µM) | IC50 (second compound 0.316 µM) | IC50 (second compound 1 µM) | IC50 (second compound 10 µM)
inactive: viability, T/C [1] 110% | viability, T/C [13] 95.2% | viability, T/C [2] 92.1% | viability, T/C [14] 105% | viability, T/C [15] 96.4% | viability, T/C [16] 97.5% | viability, T/C [3] 91.4% | viability, T/C [17] 107% | viability, T/C [4] 87.8% | viability, T/C [18] 88.3% | viability, T/C [19] 85.8% | viability, T/C [20] 73.8% | viability, T/C [5] 72.9% | viability, T/C [21] 90.7% | viability, T/C [6] 78% | viability, T/C [22] 79% | viability, T/C [23] 68.7% | viability, T/C [24] 71% | viability, T/C [7] 56.1% | viability, T/C [25] 66.6% | viability, T/C [8] 64.3% | viability, T/C [26] 67.1% | viability, T/C [27] 60.1% | viability, T/C [28] 58.1% | viability, T/C [9] 40.8% | viability, T/C [29] 44.4% | viability, T/C [10] 38.6% | viability, T/C [30] 42% | viability, T/C [31] 50.8% | viability, T/C [32] 45.4% | viability, T/C [11] 70.9% | viability, T/C [33] 57.8% | viability, T/C [12] 65.9% | viability, T/C [34] 61.5% | viability, T/C [35] 49.6% | viability, T/C [36] 61.6%
< 31.6 nM: IC50 (second compound 3.16 µM)

Nc1ccn(C2OC(CO)C(O)C2(F)F)c(=O)n1 (stereo not drawn) + CN(C)c1ccc(Nc2c3ccc(NC(=O)CCN4CCCC4)cc3nc3cc(NC(=O)CCN4CCCC4)ccc23)cc1
75.5 nM: IC50 (second compound 1 µM)
< 31.6 nM: IC50 (second compound 0.0316 µM) | IC50 (second compound 0.1 µM) | IC50 (second compound 10 µM)
inactive: viability, T/C [1] 49.8% | viability, T/C [13] 42.5% | viability, T/C [2] 39.4% | viability, T/C [14] 36.3% | viability, T/C [15] 39.8% | viability, T/C [16] 37.5% | viability, T/C [3] 52.4% | viability, T/C [17] 41.9% | viability, T/C [4] 38.6% | viability, T/C [18] 43.2% | viability, T/C [19] 57.3% | viability, T/C [20] 49.5% | viability, T/C [5] 49.3% | viability, T/C [21] 51.6% | viability, T/C [6] 43.3% | viability, T/C [22] 43.2% | viability, T/C [23] 45.8% | viability, T/C [24] 43.6% | viability, T/C [7] 60.8% | viability, T/C [25] 51.3% | viability, T/C [8] 35.4% | viability, T/C [26] 33.1% | viability, T/C [27] 41.5% | viability, T/C [28] 43.4% | viability, T/C [9] 58.8% | viability, T/C [29] 45.5% | viability, T/C [10] 49.7% | viability, T/C [30] 37.5% | viability, T/C [31] 45.6% | viability, T/C [32] 36.4% | viability, T/C [11] 44.1% | viability, T/C [33] 28.5% | viability, T/C [12] 29.6% | viability, T/C [34] 26.2% | viability, T/C [35] 24% | viability, T/C [36] 26.9%
91.7 nM: IC50 (second compound 3.16 µM)
38.9 nM: IC50 (second compound 0.316 µM)

C#Cc1c(F)ccc2cc(O)cc(-c3ncc4c(N5CC6CCC(C5)N6)nc(OCC56CCCN5CC(F)C6)nc4c3F)c12 (stereo not drawn) + CN(C)c1ccc(Nc2c3ccc(NC(=O)CCN4CCCC4)cc3nc3cc(NC(=O)CCN4CCCC4)ccc23)cc1
inactive: viability, T/C [1] 92.2% | viability, T/C [13] 104% | viability, T/C [2] 104% | viability, T/C [14] 88.5% | viability, T/C [15] 88.9% | viability, T/C [16] 101% | viability, T/C [3] 103% | viability, T/C [17] 118% | viability, T/C [4] 104% | viability, T/C [18] 100% | viability, T/C [19] 88.5% | viability, T/C [20] 94.9% | viability, T/C [5] 102% | viability, T/C [21] 94.1% | viability, T/C [6] 115% | viability, T/C [22] 83.5% | viability, T/C [23] 102% | viability, T/C [24] 88% | viability, T/C [7] 87% | viability, T/C [25] 102% | viability, T/C [8] 110% | viability, T/C [26] 104% | viability, T/C [27] 98.9% | viability, T/C [28] 92.9% | viability, T/C [9] 106% | viability, T/C [29] 101% | viability, T/C [10] 93.7% | viability, T/C [30] 89.8% | viability, T/C [31] 83.3% | viability, T/C [32] 84.1% | viability, T/C [11] 86.1% | viability, T/C [33] 89.3% | viability, T/C [12] 93.9% | viability, T/C [34] 66% | viability, T/C [35] 64.2% | viability, T/C [36] 28.7%
4610 nM: IC50 (second compound 10 µM)
> 10000 nM: IC50 (second compound 0.0316 µM) | IC50 (second compound 0.1 µM) | IC50 (second compound 0.316 µM) | IC50 (second compound 1 µM) | IC50 (second compound 3.16 µM)
